Patent publication US11008295B2, “Compounds having antiinfective, antitumoral and antifungal activity” (priority 2017, dated 2021)
Where two headings read alike, the source gives them in different places.

Columns and labels:
T. pulmonis = assay: Kirby-Bauer disk diffusion susceptibility test; type: cell-based, Tsukamurella pulmonis; details: T. pulmonis; zone of inhibition; 200 μg/disc
Procedure: (§1) Bacterial strains, from clinical origin, were supplied by the National Center for Microbiology, Institute of Health Carlos III (Majadahonda, Madrid). They are detailed in Table I.
(§2) Bacterial cells suspension in sterile saline was prepared from a culture of 24-72 h, depending on bacterial species, in Mueller-Hinton Agar with 5% sheep blood. Each suspension was adjusted to a fixed size inoculum of 1-5×10^8 CFU/ml with a spectrophotometer (Ferraro, M J National Committee for Clinical Laboratory Standards. 2000).
(§3) Kirby-Bauer disk diffusion susceptibility test protocol was utilized to determine the sensitivity or resistance of pathogenic bacteria against the compounds and others antibiotics. The absence of growth around the disks is an indirect measure of the ability of this compound to inhibit an organism (Kirby, W. et al., Antibiotics Annu. 1956-1957:892). After 18 to 72 hours of incubation at […], with or without CO2, under aerobic or anaerobic conditions, depending on the bacterial species, halo of growth inhibition were obtained and evaluated.
(§4) Interpretation of susceptibility and resistance was based on the presence or absence of a zone of inhibition surrounding the disk. Kirby-Bauer disk diffusion susceptibility test is a common method which uses antibiotic-impregnated wafers to test whether bacteria are affected by antibiotics. The size of the zone of inhibition depends on how effective the antibiotic is at stopping the growth of the bacterium. A stronger antibiotic will create a larger zone, because a lower concentration of the antibiotic is enough to stop growth.

A. niger = assay: Antifungal disk diffusion susceptibility test (CLSI M44); type: cell-based
Procedure: (§5) Filamentous fungi and yeasts strains, from clinical origin, were supplied by Microbiology Service from The Princess Hospital, Madrid. They are detailed in Table III.
(§6) Filamentous fungi and yeast cells suspensions in distilled water was prepared from a culture of 24-48 h, depending on species, in Sabouraud agar. Each suspension was adjusted to a fixed size inoculum of 1-5×10^8 CFU/ml with a spectrophotometer (Ferraro, M J National Committee for Clinical Laboratory Standards. 2000).
(§7) Antifungal susceptibility tests were developed following the standardized methodology detailed in document CLSI: M44-4: Method for Antifungal Disk diffusion susceptibility testing of yeasts consisting of disk diffusion on agar Muller-Hinton (supplemented with 2% glucose).

C. glabrata = assay: as above; type: cell-based
Procedure: as §5, §6, §7

C. albicans = assay: as above; type: cell-based
Procedure: as §5, §6, §7

A. terreus = assay: as above; type: cell-based
Procedure: as §5, §6, §7

C. lusitaniae = assay: as above; type: cell-based
Procedure: as §5, §6, §7

C. guilliermondii = assay: as above; type: cell-based
Procedure: as §5, §6, §7

A. flavus = assay: as above; type: cell-based
Procedure: as §5, §6, §7

C. tropicalis = assay: as above; type: cell-based
Procedure: as §5, §6, §7

A. fumigatus = assay: as above; type: cell-based
Procedure: as §5, §6, §7

[1] = Cellular viability (CellTiter Glo) in parallel to the anti-HIV assay; type: cell-based; details: human; concentration required to kill 50% of cells; MT-2 cells; read-out: CC50 VIH MT-2
Procedure: All assays for assessing anti-HIV activity were taken in parallel to determine cellular viability of the culture in the presence or absence of different concentrations of the isolated molecule. It was followed exactly the same methodology as in the anti-HIV assay except with the addition of complete DMEM medium instead of supernatant viral, in the same proportion, and the detection of the viability was performed with the viability detection kit CellTiter Glo (Promega), following manufacturer instructions. Viability is directly proportional to the luciferase activity obtained. All data are expressed as percentage relative to a control with DMSO at the same concentration. Antiviral activity and toxicity curves were performed to the compound at different concentrations.

N. carnea = assay: Kirby-Bauer disk diffusion susceptibility test; type: cell-based, Nocardia carnea; details: N. carnea; zone of inhibition; 200 μg/disc
Procedure: as §1, §2, §3, §4

HIV = assay: microbe, parasite or virus in culture; type: cell-based; details: for safety index: anti-HIV activity/toxicity profile, MT-2 cells
Description: Assessment of in vitro antiviral activity is usually performed to estimate parameters of antiviral potency and efficacy represented by the percentage of inhibition of HIV activity or IC50. The assay utilized is based on the use of recombinant viruses in which the nef gene, […] for in vitro HIV replication, has been replaced by a Renilla reporter gene so that viral replication can be quantified directly (Garcia-Perez J et al, J Med Virol. 2007 February; 79(2):127-37). The assay was performed infecting MT-2 cells or PHA-activated PBMCs/IL-2 with viral supernatants obtained previously. The study was development in AIDS Immunopathology Unit, National Center of Microbiology, Institute of Health Carlos III, Majadahonda, Madrid, Spain.
All data are expressed as percentage relative to a control with DMSO at the same concentration. Antiviral activity and toxicity curves were performed to the compound at different concentrations.

B. cereus = assay: Kirby-Bauer disk diffusion susceptibility test; type: cell-based, Bacillus cereus; details: B. cereus; zone of inhibition; 200 μg/disc
Procedure: as §1, §2, §3, §4

[2] = test system: CAL33 cell line (head and neck); assay: MTT assay, antitumor activity; type: cell-based
E. faecalis = assay: Kirby-Bauer disk diffusion susceptibility test; type: cell-based; details: E. faecalis; zone of inhibition; 200 μg/disc
Procedure: as §1, §2, §3, §4

N. cyriacigeorgica = assay: Kirby-Bauer disk diffusion susceptibility test; type: cell-based; details: N. cyriacigeorgica; zone of inhibition; 200 μg/disc
Procedure: as §1, §2, §3, §4

P. aeruginosa = assay: Kirby-Bauer disk diffusion susceptibility test; type: cell-based; details: P. aeruginosa; zone of inhibition; 200 μg/disc
Procedure: as §1, §2, §3, §4

M. chelonae = assay: Kirby-Bauer disk diffusion susceptibility test; type: cell-based; details: M. chelonae; zone of inhibition; 200 μg/disc
Procedure: as §1, §2, §3, §4

E. coli = assay: Kirby-Bauer disk diffusion susceptibility test; type: cell-based; details: E. coli; zone of inhibition; 200 μg/disc
Procedure: as §1, §2, §3, §4

M. fortuitum = assay: Kirby-Bauer disk diffusion susceptibility test; type: cell-based; details: M. fortuitum; zone of inhibition; 200 μg/disc
Procedure: as §1, §2, §3, §4

E. faecium = assay: Kirby-Bauer disk diffusion susceptibility test; type: cell-based; details: E. faecium; zone of inhibition; 200 μg/disc
Procedure: as §1, §2, §3, §4

S. aureus = assay: Kirby-Bauer disk diffusion susceptibility test; type: cell-based; details: S. aureus; zone of inhibition; 200 μg/disc
Procedure: as §1, §2, §3, §4

S. epidermidis = assay: Kirby-Bauer disk diffusion susceptibility test; type: cell-based; details: S. epidermidis; zone of inhibition; 200 μg/disc
Procedure: as §1, §2, §3, §4

M. abscessus = assay: Kirby-Bauer disk diffusion susceptibility test; type: cell-based, Mycobacterium abscessus; details: M. abscessus; zone of inhibition; 200 μg/disc
Procedure: as §1, §2, §3, §4

C. parapsilopsis = assay: Antifungal disk diffusion susceptibility test (CLSI M44); type: cell-based, C. parapsilosis
Procedure: as §5, §6, §7

HT29 cell line (colon) = assay: MTT assay, antitumor activity; type: cell-based
A. baumannii = assay: Kirby-Bauer disk diffusion susceptibility test; type: cell-based; details: A. baumannii; zone of inhibition; 200 μg/disc
Procedure: as §1, §2, §3, §4

MCF7 cell line (breast) = assay: MTT assay, antitumor activity; type: cell-based
[3] = Human immunodeficiency virus 1, MT2
[4] = Human immunodeficiency virus 1, MT2, read-out: IC50 VIH MT-2

Compound	Activity (mm), 200 μg/disc (T. pulmonis) [mm]	Activity (mm), 200 μg/disc (A. niger) [mm]	Activity (mm), 200 μg/disc (C. glabrata) [mm]	Activity (mm), 200 μg/disc (C. albicans) [mm]	Activity (mm), 200 μg/disc (A. terreus) [mm]	Activity (mm), 200 μg/disc (C. lusitaniae) [mm]	Activity (mm), 200 μg/disc (C. guilliermondii) [mm]	Activity (mm), 200 μg/disc (A. flavus) [mm]	Activity (mm), 200 μg/disc (C. tropicalis) [mm]	Activity (mm), 200 μg/disc (A. fumigatus) [mm]	CC50 [1] [nM]	Activity (mm), 200 μg/disc (N. carnea) [mm]	IC50 (HIV; [3]) [nM]	IC50 (HIV; [4]) [nM]	safety index (HIV)	Activity (mm), 200 μg/disc (B. cereus) [mm]	Activity (mm), 200 μg/disc (N. cyriacigeorgica) [mm]	Activity (mm), 200 μg/disc (P. aeruginosa) [mm]	Activity (mm), 200 μg/disc (M. chelonae) [mm]	Activity (mm), 200 μg/disc (E. coli) [mm]	also measured
CCCCCC1=NN(C(=O)CCOC(=O)CCC(=O)O)OC(CCCCC)C1 (centres unmarked) [DOXA-1]	34	18	30	25	18	38	38	20	30	15	8200	40	130	130	more than 60	36	35	9	34	9	Inhibition of cell line ([2]; 750 nM): moderate inhibition; Activity (mm), 200 μg/disc (E. faecalis): 34 mm; Activity (mm), 200 μg/disc (M. fortuitum): 30 mm; Activity (mm), 200 μg/disc (E. faecium): 34 mm; Activity (mm), 200 μg/disc (S. aureus): 20 mm; Activity (mm), 200 μg/disc (S. epidermidis): 22 mm; Activity (mm), 200 μg/disc (M. abscessus): 32 mm; Activity (mm), 200 μg/disc (C. parapsilopsis): 30 mm; Inhibition of cell line (HT29 cell line (colon); 750 nM): moderate inhibition
CCCCCC1=NN(C(=O)CCOC(C)=O)OC(CCCCC)C1 (centres unmarked) [DOXA-2]	41	40	18	18	40	20	28	38	20	30	7720	25	84	84	about 100	20	26	9	30	9	Concentration of optimal inhibition [2]: 100 nM; Concentration at which proliferation was inhibited ([2]; 10-750 nM, 24, 48 and 72 hours): 50 nM; Activity (mm), 200 μg/disc (M. fortuitum): 25 mm; Activity (mm), 200 μg/disc (A. baumannii): 9 mm; Activity (mm), 200 μg/disc (S. aureus): 10 mm; Activity (mm), 200 μg/disc (S. epidermidis): 10 mm; Concentration at which proliferation was inhibited (MCF7 cell line (breast)): 250 nM; Activity (mm), 200 μg/disc (M. abscessus): 25 mm; Activity (mm), 200 μg/disc (C. parapsilopsis): 18 mm; Concentration of best inhibition (HT29 cell line (colon)): 50 nM
